In patent US4110327A, “2,3 Diketo-piperazinocarbonylamino alkanoic acids and derivatives” (Toyama Chemical Co., Ltd., priority 1974, dated 1978):
In brackets after ≈: the same amount, converted by molar mass.

How the values were obtained:
[1] = test system: Escherichia coli NIHJ; assay: MIC against standard strain, plate method; format: cell-based; conditions: unit assumed
Procedure, shortened: (§1)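 Agar plate dilution MIC in heart infusion agar, pH 7.4. Inoculum was 10^4 cells per plate, from a suspension of 10^6 cells/ml.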

[2] = test system: Klebsiella pneumoniae; assay: MIC against standard strain, plate method; format: cell-based; conditions: unit assumed
Procedure, shortened: as §1

[3] = test system: Proteus vulgaris 3027; assay: MIC against standard strain, plate method; format: cell-based; conditions: Proteus vulgaris 3027, standard strain; unit assumed
Procedure, shortened: as §1

[4] = test system: Pseudomonas aeruginosa I.F.O.; assay: MIC against standard strain, plate method; format: cell-based; conditions: unit assumed
Procedure, shortened: as §1

[5] = test system: Staphylococcus aureus 209p; assay: MIC against standard strain, plate method; format: cell-based; conditions: unit assumed
Procedure, shortened: as §1

[6] = test system: Staphylococcus aureus; assay: MIC against clinical isolates; format: cell-based; conditions: unit assumed
[7] = test system: Escherichia coli; assay: MIC against clinical isolates; format: cell-based; conditions: unit assumed
[8] = test system: Pseudomonas aeruginosa; assay: MIC against clinical isolates; format: cell-based; conditions: unit assumed
[9] = test system: Klebsiella pneumoniae; assay: MIC against clinical isolates; format: cell-based; conditions: unit assumed
[10] = test system: Proteus mirabilis; assay: MIC against clinical isolates; format: cell-based; conditions: clinical isolate, unit assumed
[11] = test system: Proteus morganii; assay: MIC against clinical isolates; format: cell-based; conditions: clinical isolate, unit assumed
[12] = test system: Proteus vulgaris; assay: MIC against clinical isolates; format: cell-based; conditions: clinical isolate, unit assumed
[13] = test system: Proteus rettgeri; assay: MIC against clinical isolates; format: cell-based; conditions: clinical isolate, unit assumed
[14] = test system: β-lactamase; assay: Resistant activity against β-lactamase, iodometric assay; format: biochemical, Pseudomonas aeruginosa GN 238; conditions: relative to Potassium Penicillin G = 100
Description: (3) Resistant activity against β-lactamase, Pseudomonas aergionan GN 238:
The resistant activity of each compound against β-lactamase was measured in the manner described below.
β-Lactamase was prepared from Pseudomonas aeruginosa GN 238. This microorganism was cultured in 100 ml of a medium containing 2 g of yeast extract, 10 g of polypeptone, 2 g of glucose, 7 g of disodium hydrogen phosphate, 2 g of potassium dihydrogen phosphate, 1.2 g of ammonium sulfate and 0.4 g of magnesium sulfate, per liter, in a 500-ml Erlenmeyer flask for 6 hrs. at 37° C with shaking. The resulting cells were collected by centrifugation (5,000 r.p.m. × 10 min.), washed three times with 0.1 M phosphate buffer (pH 7.0). Subsequently, the cells were subjected to sonication (20 KHz, 20 min.) and then centrifuged at 15,000 r.p.m. for 60 min. By using the supernatant of enzyme fluid, the resistance of each compound against β-lactamase was determined by the iodometric assay method. Each numeral shown in Table 7 is a relative activity value calculated by assuming as 100 the activity of the control Potassium Penicillin G.

[15] = clinical isolate GN (number not given; Table 5-3)

CC1(C)S[C@@H]2[C@H](NC(=O)C(C(=O)O)c3ccccc3)C(=O)N2[C@H]1C(=O)O (stereo partly shown) [Sodium Carbenicillin, SodiumCarbenicillin, reference compound]
MIC [1]: < 1.57 µg/mL
MIC [2]: > 200 µg/mL
MIC [3]: < 1.57 µg/mL
MIC [4]: 50 µg/mL
MIC [5]: < 1.57 µg/mL
MIC ([6]; clinical isolate F-5): > 200 µg/mL
MIC ([6]; clinical isolate MS 8619): 0.79 µg/mL
MIC ([7]; clinical isolate GN 3465): > 200 µg/mL
MIC ([7]; clinical isolate GN 3611): > 200 µg/mL
MIC ([7]; clinical isolate K-3): > 200 µg/mL
MIC ([8]; clinical isolate GN 82): 100 µg/mL
MIC ([8]; clinical isolate GN 163): 50 µg/mL
MIC ([8]; clinical isolate GN 221): 25 µg/mL
MIC ([8]; clinical isolate GN 376): 50 µg/mL
MIC ([8]; clinical isolate GN 383): 30 µg/mL
MIC ([8]; clinical isolate GN 1035): > 200 µg/mL
MIC ([8]; clinical isolate GN 1091): 100 µg/mL
MIC ([8]; clinical isolate GN 2565): 200 µg/mL
MIC ([8]; clinical isolate GN 2987): 50 µg/mL
MIC [8, 15]: 50 µg/mL
MIC ([8]; clinical isolate S-1): 200 µg/mL
MIC ([8]; clinical isolate S-2): 200 µg/mL
MIC ([8]; clinical isolate S-3): 200 µg/mL
MIC ([8]; clinical isolate S-4): 200 µg/mL
MIC ([9]; clinical isolate GN 917): > 200 µg/mL
MIC ([9]; clinical isolate GN 4081): > 200 µg/mL
MIC ([9]; clinical isolate GN 4117): > 200 µg/mL
MIC [10]: 0.8 µg/mL
MIC [11]: 0.4 µg/mL
MIC [12]: 0.8 µg/mL
MIC [13]: > 200 µg/mL
Relative activity [14]: 116%

CCCCCCCCN1CCN(C(=O)N[C@@H](C(=O)N[C@@H]2C(=O)N3[C@@H]2SC(C)(C)[C@@H]3C(=O)O)c2ccccc2)CC1=O [compound 30]
MIC [1]: < 1.57 µg/mL
MIC [2]: 6.25 µg/mL (≈ 10.6 µM)
MIC [3]: 3.13 µg/mL (≈ 5.33 µM)
MIC [4]: 25 µg/mL (≈ 42.5 µM)
MIC [5]: < 1.57 µg/mL
MIC ([6]; clinical isolate F-1): 3.13 µg/mL (≈ 5.33 µM)
MIC ([6]; clinical isolate F-2): 0.79 µg/mL (≈ 1.34 µM)
MIC ([6]; clinical isolate F-3): 0.79 µg/mL (≈ 1.34 µM)
MIC ([6]; clinical isolate F-4): 3.13 µg/mL (≈ 5.33 µM)
MIC ([6]; clinical isolate F-5): 100 µg/mL (≈ 170 µM)
MIC ([6]; clinical isolate MS 8588): 1.57 µg/mL (≈ 2.67 µM)
MIC ([6]; clinical isolate MS 8596): 1.57 µg/mL (≈ 2.67 µM)
MIC ([6]; clinical isolate MS 8619): < 0.4 µg/mL
MIC ([6]; clinical isolate MS 8684): 1.57 µg/mL (≈ 2.67 µM)
MIC ([6]; clinical isolate MS 8713): 1.57 µg/mL (≈ 2.67 µM)
MIC ([7]; clinical isolate GN 3435): 12.5 µg/mL (≈ 21.3 µM)
MIC ([7]; clinical isolate GN 3452): 25 µg/mL (≈ 42.5 µM)
MIC ([7]; clinical isolate GN 3465): 50 µg/mL (≈ 85.1 µM)
MIC ([7]; clinical isolate GN 3481): 25 µg/mL (≈ 42.5 µM)
MIC ([7]; clinical isolate GN 3611): > 200 µg/mL
MIC ([7]; clinical isolate K-1): 12.5 µg/mL (≈ 21.3 µM)
MIC ([7]; clinical isolate K-2): 25 µg/mL (≈ 42.5 µM)
MIC ([7]; clinical isolate K-3): > 200 µg/mL
MIC ([7]; clinical isolate K-4): 12.5 µg/mL (≈ 21.3 µM)
MIC ([8]; clinical isolate GN 82): 25 µg/mL (≈ 42.5 µM)
MIC ([8]; clinical isolate GN 163): 25 µg/mL (≈ 42.5 µM)
MIC ([8]; clinical isolate GN 221): 50 µg/mL (≈ 85.1 µM)
MIC ([8]; clinical isolate GN 376): 50 µg/mL (≈ 85.1 µM)
MIC ([8]; clinical isolate GN 383): 50 µg/mL (≈ 85.1 µM)
MIC ([8]; clinical isolate GN 1035): 50 µg/mL (≈ 85.1 µM)
MIC ([8]; clinical isolate GN 1091): 25 µg/mL (≈ 42.5 µM)
MIC ([8]; clinical isolate GN 2565): 50 µg/mL (≈ 85.1 µM)
MIC ([8]; clinical isolate GN 2987): 12.5 µg/mL (≈ 21.3 µM)
MIC [8, 15]: 50 µg/mL (≈ 85.1 µM)
MIC ([8]; clinical isolate S-1): 50 µg/mL (≈ 85.1 µM)
MIC ([8]; clinical isolate S-2): 50 µg/mL (≈ 85.1 µM)
MIC ([8]; clinical isolate S-3): 100 µg/mL (≈ 170 µM)
MIC ([8]; clinical isolate S-4): 50 µg/mL (≈ 85.1 µM)
MIC ([9]; clinical isolate GN 917): 25 µg/mL (≈ 42.5 µM)
MIC ([9]; clinical isolate GN 3850): 25 µg/mL (≈ 42.5 µM)
MIC ([9]; clinical isolate GN 4081): 100 µg/mL (≈ 170 µM)
MIC ([9]; clinical isolate GN 4117): 100 µg/mL (≈ 170 µM)
MIC [10]: 3.13 µg/mL (≈ 5.33 µM)
MIC [11]: 3.13 µg/mL (≈ 5.33 µM)
MIC [12]: 3.13 µg/mL (≈ 5.33 µM)
MIC [13]: 12.5 µg/mL (≈ 21.3 µM)
Relative activity [14]: 3%
